Results taken from ChEMBL document CHEMBL4308841, “Synthesis, in vitro antiproliferative activity, and kinase inhibitory effects of pyrazole-containing diarylureas and diarylamides” (Eur J Med Chem, 2018).

How the values were obtained:
[1] = test system: UACC-257; assay: Growth inhibition of human UACC257 cells assessed as cell growth at 1 uM incubated for 48 hrs by sulforhodamine B assay relative to control; assay type: functional; details: UACC-257, 48 h, read-out: Activity
[2] = test system: SF-539; assay: Growth inhibition of human SF539 cells assessed as cell growth at 0.01 uM incubated for 48 hrs by sulforhodamine B assay relative to control; assay type: functional; details: SF-539, 48 h, read-out: Activity
[3] = test system: HL-60(TB); assay: Growth inhibition of human HL-60(TB) cells assessed as cell growth at 100 uM incubated for 48 hrs by sulforhodamine B assay relative to control; assay type: functional; details: HL-60, 48 h, read-out: Activity
[4] = test system: MOLT-4; assay: Growth inhibition of human MOLT4 cells assessed as cell growth at 0.1 uM incubated for 48 hrs by sulforhodamine B assay relative to control; assay type: functional; details: MOLT-4, 48 h, read-out: Activity
[5] = test system: SNB-19; assay: Growth inhibition of human SNB19 cells assessed as cell growth at 0.1 uM incubated for 48 hrs by sulforhodamine B assay relative to control; assay type: functional; details: SNB-19, 48 h, read-out: Activity
[6] = test system: PC-3; assay: Growth inhibition of human PC3 cells assessed as cell growth at 100 uM incubated for 48 hrs by sulforhodamine B assay relative to control; assay type: functional; details: PC-3, 48 h, read-out: Activity
[7] = test system: SK-MEL-2; assay: Growth inhibition of human SK-MEL-2 cells incubated for 48 hrs by sulforhodamine B assay; assay type: functional, cell-based; details: SK-MEL-2, 48 h
[8] = test system: NCI-H460; assay: Growth inhibition of human NCI-H460 cells assessed as cell growth at 1 uM incubated for 48 hrs by sulforhodamine B assay relative to control; assay type: functional; details: NCI-H460, 48 h, read-out: Activity
[9] = test system: RXF 393; assay: Growth inhibition of human RXF393 cells assessed as cell growth at 100 uM incubated for 48 hrs by sulforhodamine B assay relative to control; assay type: functional; details: RXF 393, 48 h, read-out: Activity
[10] = test system: NCI/ADR-RES; assay: Growth inhibition of human NCI/ADR-RES cells assessed as cell growth at 100 uM incubated for 48 hrs by sulforhodamine B assay relative to control; assay type: functional; details: read-out: Activity
[11] = test system: HCT-116; assay: Growth inhibition of human HCT116 cells assessed as cell growth at 0.1 uM incubated for 48 hrs by sulforhodamine B assay relative to control; assay type: functional; details: HCT-116, 48 h, read-out: Activity
[12] = test system: Malme-3M; assay: Growth inhibition of human MALME-3M cells assessed as cell growth at 1 uM incubated for 48 hrs by sulforhodamine B assay relative to control; assay type: functional; details: read-out: Activity
[13] = test system: SN12C; assay: Growth inhibition of human SN12C cells assessed as cell growth at 1 uM incubated for 48 hrs by sulforhodamine B assay relative to control; assay type: functional; details: read-out: Activity
[14] = test system: 786-0; assay: Growth inhibition of human 786-0 cells incubated for 48 hrs by sulforhodamine B assay; assay type: functional, cell-based; details: 786-0, 48 h
[15] = test system: OVCAR-5; assay: Growth inhibition of human OVCAR5 cells incubated for 48 hrs by sulforhodamine B assay; assay type: functional, cell-based; details: OVCAR-5, 48 h
[16] = test system: PC-3; assay: Growth inhibition of human PC3 cells assessed as cell growth at 0.01 uM incubated for 48 hrs by sulforhodamine B assay relative to control; assay type: functional; details: PC-3, 48 h, read-out: Activity
[17] = test system: SR; assay: Growth inhibition of human SR cells assessed as cell growth at 0.1 uM incubated for 48 hrs by sulforhodamine B assay relative to control; assay type: functional; details: read-out: Activity
[18] = test system: ACHN; assay: Growth inhibition of human ACHN cells assessed as cell growth at 0.1 uM incubated for 48 hrs by sulforhodamine B assay relative to control; assay type: functional; details: read-out: Activity
[19] = test system: SN12C; assay: Growth inhibition of human SN12C cells incubated for 48 hrs by sulforhodamine B assay; assay type: functional, cell-based
[20] = test system: 786-0; assay: Growth inhibition of human 786-0 cells assessed as cell growth at 0.01 uM incubated for 48 hrs by sulforhodamine B assay relative to control; assay type: functional; details: 786-0, 48 h, read-out: Activity
[21] = test system: UACC-62; assay: Growth inhibition of human UACC62 cells assessed as cell growth at 0.1 uM incubated for 48 hrs by sulforhodamine B assay relative to control; assay type: functional; details: UACC-62, 48 h, read-out: Activity
[22] = test system: SK-MEL-2; assay: Growth inhibition of human SK-MEL-2 cells assessed as cell growth at 0.01 uM incubated for 48 hrs by sulforhodamine B assay relative to control; assay type: functional; details: SK-MEL-2, 48 h, read-out: Activity
[23] = test system: MOLT-4; assay: Growth inhibition of human MOLT4 cells incubated for 48 hrs by sulforhodamine B assay; assay type: functional, cell-based; details: MOLT-4, 48 h
[24] = test system: SK-MEL-28; assay: Growth inhibition of human SK-MEL-28 cells assessed as cell growth at 100 uM incubated for 48 hrs by sulforhodamine B assay relative to control; assay type: functional; details: SK-MEL-28, 48 h, read-out: Activity
[25] = test system: COLO 205; assay: Growth inhibition of human COLO205 cells assessed as cell growth at 0.01 uM incubated for 48 hrs by sulforhodamine B assay relative to control; assay type: functional; details: COLO 205, 48 h, read-out: Activity
[26] = test system: SK-OV-3; assay: Growth inhibition of human SKOV3 cells assessed as cell growth at 100 uM incubated for 48 hrs by sulforhodamine B assay relative to control; assay type: functional; details: SK-OV-3, 48 h, read-out: Activity
[27] = test system: RXF 393; assay: Growth inhibition of human RXF393 cells assessed as cell growth at 0.01 uM incubated for 48 hrs by sulforhodamine B assay relative to control; assay type: functional; details: RXF 393, 48 h, read-out: Activity
[28] = test system: NCI-H322M; assay: Growth inhibition of human NCI-H322M cells incubated for 48 hrs by sulforhodamine B assay; assay type: functional, cell-based
[29] = test system: RXF 393; assay: Growth inhibition of human RXF393 cells assessed as cell growth at 0.1 uM incubated for 48 hrs by sulforhodamine B assay relative to control; assay type: functional; details: RXF 393, 48 h, read-out: Activity
[30] = test system: HOP-62; assay: Growth inhibition of human HOP62 cells assessed as cell growth at 0.01 uM incubated for 48 hrs by sulforhodamine B assay relative to control; assay type: functional; details: HOP-62, 48 h, read-out: Activity
[31] = read-out: pLC50 (the source's name) (converted)
[32] = read-out: LC50 (the source's name)

Compound: COc1cc(Cl)cc(-c2nn(-c3cccc(NC(=O)Nc4cc(C(F)(F)F)cc(C(F)(F)F)c4)c3)cc2-c2ccncc2)c1
- growth at 1 µM [1]: 23%
- growth at 0.01 µM [2]: 100%
- growth at 100 µM [3]: -8%
- growth at 0.1 µM [4]: 87%
- growth at 0.1 µM [5]: 87%
- growth at 100 µM [6]: -44%
- IC50 [7]: 660 nM
- GI50 ([7]; read-out: GI50): 658 nM
- TGI ([7]; read-out: TGI): 2.7 µM
- GI50 ([7]; read-out: pGI50 (converted)): 661 nM
- CC50 [7, 31]: 9.33 µM
- TGI ([7]; read-out: pTGI (converted)): 2.69 µM
- growth at 1 µM [8]: 13%
- growth at 100 µM [9]: -92%
- growth at 100 µM [10]: -12%
- growth at 0.1 µM [11]: 97%
- growth at 1 µM [12]: 36%
- growth at 1 µM [13]: 17%
- IC50 [14]: 570 nM
- GI50 ([14]; read-out: GI50): 558 nM
- CC50 [14, 32]: 0.0631 µM
- TGI ([14]; read-out: TGI): 2.17 µM
- GI50 ([14]; read-out: pGI50 (converted)): 562 nM
- CC50 [14, 31]: 6.31 µM
- TGI ([14]; read-out: pTGI (converted)): 2.19 µM
- IC50 [15]: 1460 nM
- GI50 ([15]; read-out: GI50): 1.46 µM
- CC50 [15, 32]: > 100 µM
- TGI ([15]; read-out: TGI): 12.8 µM
- GI50 ([15]; read-out: pGI50 (converted)): 1.45 µM
- CC50 [15, 31]: > 100 µM
- TGI ([15]; read-out: pTGI (converted)): 12.9 µM
- growth at 0.01 µM [16]: 101%
- growth at 0.1 µM [17]: 92%
- growth at 0.1 µM [18]: 99%
- IC50 [19]: 390 nM
- GI50 ([19]; read-out: GI50): 0.356 µM
- LC50 ([19]; read-out: LC50): 0.0295 µM
- TGI ([19]; read-out: TGI): 1980 nM
- GI50 ([19]; read-out: pGI50 (converted)): 0.389 µM
- LC50 ([19]; read-out: pLC50 (converted)): 29.5 µM
- TGI ([19]; read-out: pTGI (converted)): 2000 nM
- growth at 0.01 µM [20]: 96%
- growth at 0.1 µM [21]: 92%
- growth at 0.01 µM [22]: 103%
- IC50 [23]: 310 nM
- GI50 ([23]; read-out: GI50): 306 nM
- CC50 [23, 32]: > 100 µM
- TGI ([23]; read-out: TGI): 1.64 µM
- GI50 ([23]; read-out: pGI50 (converted)): 302 nM
- CC50 [23, 31]: > 100 µM
- TGI ([23]; read-out: pTGI (converted)): 1.62 µM
- growth at 100 µM [24]: -58%
- growth at 0.01 µM [25]: 98%
- growth at 100 µM [26]: -73%
- growth at 0.01 µM [27]: 96%
- IC50 [28]: 930 nM
- GI50 ([28]; read-out: GI50): 933 nM
- TGI ([28]; read-out: TGI): 10.9 µM
- GI50 ([28]; read-out: pGI50 (converted)): 933 nM
- CC50 [28, 31]: 46.8 µM
- TGI ([28]; read-out: pTGI (converted)): 11 µM
- growth at 0.1 µM [29]: 101%
- growth at 0.01 µM [30]: 93%

Compound: O=C(Nc1cccc(-n2cc(-c3ccncc3)c(-c3cc(O)cc(Cl)c3)n2)c1)c1ccc(N2CCOCC2)c(C(F)(F)F)c1
- growth at 1 µM [1]: 54%
- growth at 0.01 µM [2]: 94%
- growth at 100 µM [3]: -48%
- growth at 0.1 µM [4]: 97%
- growth at 0.1 µM [5]: 105%
- growth at 100 µM [6]: -8%
- GI50 ([7]; read-out: GI50): 2340 nM
- CC50 [7, 32]: > 100 µM
- TGI ([7]; read-out: TGI): 13.2 µM
- GI50 ([7]; read-out: pGI50 (converted)): 2340 nM
- CC50 [7, 31]: > 100 µM
- TGI ([7]; read-out: pTGI (converted)): 13.2 µM
- growth at 1 µM [8]: 44%
- growth at 100 µM [9]: -39%
- growth at 100 µM [10]: 25%
- growth at 0.1 µM [11]: 102%
- growth at 1 µM [12]: 52%
- growth at 1 µM [13]: 58%
- GI50 ([14]; read-out: GI50): 2240 nM
- CC50 [14, 32]: 41 µM
- TGI ([14]; read-out: TGI): 10.1 µM
- GI50 ([14]; read-out: pGI50 (converted)): 2240 nM
- CC50 [14, 31]: 40.7 µM
- TGI ([14]; read-out: pTGI (converted)): 10 µM
- GI50 ([15]; read-out: GI50): 14.8 µM
- CC50 [15, 32]: > 100 µM
- TGI ([15]; read-out: TGI): 39.6 µM
- GI50 ([15]; read-out: pGI50 (converted)): 14.8 µM
- CC50 [15, 31]: > 100 µM
- TGI ([15]; read-out: pTGI (converted)): 39.8 µM
- growth at 0.01 µM [16]: 93%
- growth at 0.1 µM [17]: 98%
- growth at 0.1 µM [18]: 99%
- GI50 ([19]; read-out: GI50): 6.37 µM
- LC50 ([19]; read-out: LC50): > 100 µM
- TGI ([19]; read-out: TGI): > 100000 nM
- GI50 ([19]; read-out: pGI50 (converted)): 6.31 µM
- LC50 ([19]; read-out: pLC50 (converted)): > 100 µM
- TGI ([19]; read-out: pTGI (converted)): > 100000 nM
- growth at 0.01 µM [20]: 102%
- growth at 0.1 µM [21]: 91%
- growth at 0.01 µM [22]: 54%
- GI50 ([23]; read-out: GI50): 1110 nM
- CC50 [23, 32]: > 100 µM
- TGI ([23]; read-out: TGI): 43.6 µM
- GI50 ([23]; read-out: pGI50 (converted)): 1120 nM
- CC50 [23, 31]: > 100 µM
- TGI ([23]; read-out: pTGI (converted)): 4.47 µM
- growth at 100 µM [24]: -22%
- growth at 0.01 µM [25]: 106%
- growth at 100 µM [26]: 19%
- growth at 0.01 µM [27]: 91%
- GI50 ([28]; read-out: GI50): 2530 nM
- CC50 [28, 32]: > 100 µM
- TGI ([28]; read-out: TGI): > 100 µM
- GI50 ([28]; read-out: pGI50 (converted)): 2820 nM
- CC50 [28, 31]: > 100 µM
- TGI ([28]; read-out: pTGI (converted)): > 100 µM
- growth at 0.1 µM [29]: 85%
- growth at 0.01 µM [30]: 100%
